The values that follow come from US10369145B2, “Coumarin derivatives and methods of use in treating hyperproliferative diseases” (DISCOVERYBIOMED, INC., priority 2013, dated 2019).

The term GI50 denotes the concentration giving 50% growth inhibition. In general, CC50 refers to the concentration that lowers cell viability or growth by half. Read a high CC50 as better tolerance by the cells. As a reminder, the TGI is the concentration giving total growth inhibition.

Molecules are shown by their SMILES.

Series [1] relates to hyperproliferative PKD cells (cloned polycystic kidney tissue cells). The experiment in a line: Concentration-response in primary cultures cloned from cystic kidney tissue. It is filed as cell-based. As to conditions: 72 hour treatment; for IC50 / Max inhibition: hyperproliferative PKD cells. On the procedure: (§1) The concentration-response effects of Compound DBM 228, Compound DBM 308, Compound DBM 101, and Compound DBM 328 were determined in primary cultures derived as ‘clones’ from cystic versus non-cystic kidney tissue. CRC graphs, IC50 values, and the percent maximum inhibition versus lowest doses without effect were calculated with GraphPad Prism software. […] There was also a marked separation in effect between hyperproliferative PKD cells (FIG. 5A and Table 3) and WT cells (FIG. 5B and Table 4).

Series [2] concerns WT cells (cloned non-cystic kidney tissue cells). The series can be described thus: Concentration-response in primary cultures cloned from non-cystic kidney tissue. Type of series: cell-based. The conditions noted are these: 72 hour treatment. How it is done:
as §1

Series [3] relates to human cystic ADPKD and non-cystic renal epithelial cells. The experiment in a line: Proliferating versus confluent cystic ADPKD and normal renal cells. It is filed as cell-based. On the procedure:
The compounds described herein are effective for inhibiting cellular proliferation in hyperproliferative cell types. To study the effects of these compounds, an assay was developed to differentiate the effects of the compounds on proliferating versus confluent cells. The assay design generates a proliferating density 24 hours after seeding and provides a 3-day active cell growth/doubling window in which to gauge the anti-proliferative effect of the compounds described herein. […] In this 3-day growth window, cell number increases with daily doublings across the 72-hour period (see FIG. 1).
In each assay design, compounds were added at the 24-hour timepoint after cell seeding. The effect of the compounds, relative to vehicle control and to VelCade (a proteasome inhibitor approved in the U.S. for treating relapsed multiple myeloma and mantle cell lymphoma) as a positive control, was assessed across the 3-day growth window for proliferating cells and on an already near confluent culture of cells for the same time period. […]
Cell number at the end of the assay was determined using the CELLTITER-GLO Luminescent Cell Viability Assay (Promega; Madison, Wis.). The CELLTITER-GLO Luminescent Cell Viability Assay is a homogeneous method of determining the number of viable cells in culture based on quantitation of the ATP present, an indicator of metabolically active cells. […]

In series [4] the test system is tubulin. The experiment in a line: Biochemical tubulin polymerization. The conditions noted are these: FIG. 11C. How it is done: Following 24 hours of treatment with Compound DBM 228, Compound DBM 318, and Compound DBM 328, caspase 3/7 activation in U251MG cells was determined. The detection of caspase 3/7 activation in U251MG cells indicates activation of apoptosis. Tubulin polymerization was determined for Compounds DBM 227, DBM 228, DBM 308, DBM 318, DBM 701, DBM 707, DBM 715, paclitaxel, vincristine, and negative control Compound DBM 328. […] Paclitaxel served as polymerization enhancer control and vincristine served as polymerization inhibitor control.

Series [5] deals with NCI/ADR-RES. The conditions noted are these: for potency in multi-drug resistant line, in words (FIG. 9): NCI-ADR/RES versus drug-responsive cells. From the text:
TGI means the drug concentration resulting in total growth inhibition or “cytostasis.” LC50 is the concentration of drug resulting in a 50% reduction in the measured cytosolic ATP at the end of the drug treatment as compared to that at the beginning, indicating a net loss of cells following treatment (cytotoxicity).
A major limitation with the anti-mitotic drugs in particular and in conventional chemotherapeutics in general, is their susceptibility to cellular mechanisms of adaptive/intrinsic multi-drug resistance (i.e., MDR efflux pumps such as p-glycoprotein, MRP1).

Series [6] relates to NCI-60 cell panel. The series can be described thus: NCI-60 cell panel, whole panel. It is filed as cell-based, human. The conditions noted are these: average in the NCI-60 cell panel.
For series [7], the system named is myeloma cells. Type of series: cell-based. The conditions noted are these: for GI50 / TGI / efficacy and potency (FIG. 4): myeloma cells; for GI50 / TGI: 48 h drug exposure. How it is done: For a typical screening experiment to identify the compounds, cells were seeded into 96- or 384-well microtiter plates at plating densities pre-determined for each cell line to ensure drug exposure occurs during the proliferative phase well before confluency is reached. After seeding, cells were incubated for 24 h prior to addition of experimental drugs. After 24 h, a test plate was assayed (CellTiterGlo—measurement of cytosolic ATP) to determine a baseline measurement of the cell population for each cell line at the time of drug addition. Experimental drugs were then added and cells were cultured for a 48 h drug exposure window. […] Values were calculated for each of these three parameters if the level of activity was reached; however, if the effect was not reached or was exceeded, the value for that parameter was expressed as greater or less than the maximum or minimum concentration tested.

For series [8], the system named is primary human glioblastoma multiforme (GBM) cells. The experiment in a line: Neurosphere growth of primary human GBM cells. Type of series: cell-based. As to conditions: GBM cells grown in vitro on 3D neurospheres. From the text: Data are expressed as mean±SEM and represent at least two independent experiments with sample replicates.
Series [9] has as its system primary human idiopathic pulmonary fibrosis (IPF) myofibroblasts. The series can be described thus: Growth of primary human IPF myofibroblasts in vitro. It is filed as cell-based. As to conditions: CRC.

In series [1], `COc1ccccc1Nc1nc(-c2cc3cccc(OC)c3oc2=O)cs1` [Compound DBM 101] registered an IC50 of 7200 nM and a Max inhibition of 77%. Besides, in [2], the IC50 was > 100000 nM and the Max inhibition turned out to be 48%. For the same compound, in series [3] (confluent diseased cells and proliferating and confluent normal cells), the “effect, in words” value is “only partially affected and at mid-micromolar doses”. Besides, the “cytostatic effects, in words” value in series [3] (proliferating cystic ADPKD cells) is listed as “selective for hyperproliferative ‘diseased’ cells at potent nanomolar doses”.
For the compound `COc1ccccc1Nc1nc(-c2cc3cccc([N+](=O)[O-])c3oc2=O)cs1` [Compound DBM 227], the “effect on biochemical tubulin polymerization, in words” value in series [4] is listed as “modestly inhibited”. For the same compound, the IC50 in series [5] (read-out: potency in the NCI-ADR/RES cell line, multi-drug resistant NCI-ADR/RES) turned out to be 100 nM. This compound yielded a GI50 in series [6] of 250 nM. In [7], the CC50 is > 4000 nM, the GI50 was found to be 137 nM and the TGI is 404 nM.
Take `COc1ccccc1Nc1nc(-c2cc3cccc(Cl)c3oc2=O)cs1` [Compound DBM 308]: in series [4], the “effect on biochemical tubulin polymerization, in words” value is “modestly inhibited”. Moreover, in series [1], the “cytostatic effect, in words” value was “potent and effective analog”; the IC50 is 540 nM; the Max inhibition stood at 84%. For the same compound, in series [2], the IC50 was > 100000 nM and the Max inhibition stood at 52%. For the same compound, in series [7], the CC50 was > 4000 nM; the “efficacy and potency (FIG. 4)” value was “significant efficacy and potency”; the GI50 was 166 nM; the TGI is reported as 247 nM. In addition, in series [8], the “concentration giving equivalent cytotoxic effect” value worked out at 3 µM; the “cytostatic effect, in words” value was “cytostatic effect at nanomolar doses”; the “effect on neurosphere growth, in words” value is “dose-dependent growth arrest to cytotoxic effect”.
In the case of `COc1ccccc1Nc1nc(-c2cc3cccc(Br)c3oc2=O)cs1` [Compound DBM 318], in series [4], the “effect on biochemical tubulin polymerization, in words” value is “modestly inhibited”. In series [7], the CC50 is 226 nM; the “efficacy and potency (FIG. 4)” value was “significant efficacy and potency”; the GI50 was found to be 133 nM; the TGI stood at 164 nM.
As to `COc1ccccc1Nc1nc(-c2cc3cccc(C(=O)O)c3oc2=O)cs1` [Compound DBM 328], in series [4], the “effect on biochemical tubulin polymerization, in words” value was “also inhibited microtubule polymerization”. Besides, in series [9], the “anti-proliferative effect, in words” value was “without effect throughout the CRC”. For the same compound, in [1], the IC50 stood at 78000 nM and the Max inhibition came to 48%. In series [2], the IC50 was > 100000 nM and the Max inhibition is reported as 28%. In series [7], the CC50 is > 4000 nM, the GI50 turned out to be 2110 nM and the total growth inhibition concentration (TGI) is >4,000 nM.
Take `COc1ccccc1Nc1nc(-c2cc3cccc(C)c3oc2=O)cs1` [Compound DBM 707]: the “effect on biochemical tubulin polymerization, in words” value in series [4] was “modestly inhibited”. Besides, in [7], the CC50 came out at 544 nM; the “efficacy and potency (FIG. 4)” value was “significant efficacy and potency”; it took 131 nM to inhibit growth by half (GI50); the TGI was found to be 183 nM.
`COc1ccccc1Nc1nc(-c2cc3ccc(N)c([N+](=O)[O-])c3oc2=O)cs1` [Compound DBM 715]: the “effect on biochemical tubulin polymerization, in words” value in [4] was “modestly inhibited”. Besides, in series [7], the “efficacy and potency (FIG. 4)” value is “significant efficacy and potency”.
Consider `Cn1nnc2c(C(N)=O)ncn2c1=O` [TMZ, temozolomide, reference compound], for which the “concentration giving equivalent cytotoxic effect” value in series [8] is 500 µM.
With `CC(=O)O[C@H]1C(=O)[C@@]2(C)[C@H]([C@H](OC(=O)c3ccccc3)[C@]3(O)C[C@H](OC(=O)[C@H](O)[C@@H](NC(=O)c4ccccc4)c4ccccc4)C(C)=C1C3(C)C)[C@]1(OC(C)=O)CO[C@@H]1C[C@@H]2O` [paclitaxel, reference compound], in series [5], the “potency in multi-drug resistant line, in words (FIG. 9)” value is reported as “significantly right-shifted”.
Same read-out and setting: to `CC[C@]1(O)C[C@H]2CN(CCc3c([nH]c4ccccc34)[C@@](C(=O)OC)(c3cc4c(cc3OC)N(C=O)[C@H]3[C@@](O)(C(=O)OC)[C@H](OC(C)=O)[C@]5(CC)C=CCN6CC[C@]43[C@@H]65)C2)C1` [vincristine, reference compound] belongs “significantly right-shifted”.
